{"source": "patent US20110117120A1", "about": "“Plasmodium falciparum HLA class I restricted T-cell epitopes” (priority 2009, published 2011)", "assay_type_in_all_cases": "cell-based, human", "key": {"[1]": {"test_system": "CD8+ or CD4+ T-cell depleted PBMC", "assay": "ELISpot IFN-γ assay after CD8+ or CD4+ T-cell depletion (Example 2, Table 6)", "settings": "Vol. 1550-10, 12 wk post challenge; for CD4^+ depletion, test: CD4+ depleted; for CD8^+ Depletion, test: CD8+ depleted", "description": "PBMC population depletion was conducted using anti-human CD4+ and anti-CD8^+ coated Dynabeads™ M-450 (Dynal, Great Neck, N.Y.) following the manufacturer's instructions. Mock depletion was done with Dynabeads coated with Sheep anti-mouse IgG. Flow cytometry confirmed that T-cell subset depletions were >99% in all experiments. The data is presented as the % effect (decrease) in activity after T cell subset depletion. […]\nThe results of this study, summarized in Table 6, identified other CD8^+ epitopes, associated specific HLA class I genes."}, "[2]": {"test_system": "CD4+ and CD8+ T cells of PBMC", "assay": "Intracellular cytokine staining (ICS) of CD4+ and CD8+ T cells", "settings": "for CD8^+ T cell IFN-γ response in ICS: HLA-matched volunteers, FIG. 1 upper panel; for multifunctional CD8^+ T cell responses in ICS: v008 and v012, any two of IFN-γ, IL-2, TNF-α, FIG. 1 lower panel", "description": "ICS was performed on PBMCs with costimulatory antibodies anti-CD28 and […] (obtained from BD Bioscience™, San Jose, Calif.). The peptides were used at the same concentrations as in ELISpot assays. Stimulants were added t cells and incubated at 37° C. with 5% CO2 for 2 hr. Golgi Plug™ (Brefeldin A) (BD Bioscience™, San Jose, Calif.) was added at a final concentration of 0.6 μL/mL and incubated at 37° C. with 5% CO2 overnight. Cells were stained with anti-CD3 (Alexa Fluor 700™), anti-CD4 (PerCP™), and anti-CD8 Pacific Blue™ (obtained from BD Bioscience™, San Jose, Calif.). and 1 μg/mL of live/dead fixable blue dye, incubated and washed. Cells were permeabilized with Cytofix/Cytoperm™ solution (obtained from BD Bioscience™, San Jose, Calif.), incubated and washed. Cells were stained intracellularly with anti-CD3 ([…]), anti-CD4 (PerCP™), and anti-CD8 Pacific Blue™, anti-IFN-γ FITC, anti-TNF PE, and anti-IL2 APC, incubated and washed. Cells were resuspended and the entire available sample was acquired by flowcytometry. The gating strategy included progressively measuring total cells; viable cells only; lymphocytes; T cells; CD4^+ CD8^+ populations; and a specific cell type expressing a specific cytokine. Histograms were used to determine the total production of IFN-γ, IL2, and TNF for the CD4^+ and CD8^+ populations. Boolean gates were used to determine cells producing combinations of cytokines.\nIn these studies, T cells containing IFN-γ, IL2, or TNFα, were gated into different subsets: IFN-γ+, IL2+, TNFα−; IFN-γ+, IL2-, TNFα+; IFN-γ+, IL2+, TNFα+; or IFN-γ+, IL2−, TNFα− T cells, and stimulated with the predicted epitopes and their parent peptide pool. The frequency of CD8^+ T cells producing total IFN-γ was far greater than CD4^+ T cell responses (FIG. 1, upper panel), which were extremely low."}, "[3]": {"test_system": "CD4+ or CD8+ T cell depleted PBMC", "assay": "ELISpot IFN-γ assay after CD4+ or CD8+ T cell depletion of PBMC (Example 1)", "parameters": "% change of ELISpot activity, CD8 dep vs control: concentration or dose not given beside the values; ELISpot IFN-γ activity, Control dep / ELISpot IFN-γ activity, CD4 dep / ELISpot IFN-γ activity, CD8 dep: unit not given here", "settings": "for ELISpot IFN-γ activity, CD4 dep: CD4+ T cells depleted; for ELISpot IFN-γ activity, CD8 dep: CD8+ T cells depleted; for ELISpot IFN-γ activity, Control dep: mock depletion", "description": "PBMC population depletion was conducted using anti-human CD4+ and anti-CD8^+ coated Dynabeads™ M-450 (Dynal, Great Neck, N.Y.) following the manufacturer's instructions. Mock depletion was done with Dynabeads coated with Sheep anti-mouse IgG. Flow cytometry confirmed that T-cell subset depletions were >99% in all experiments. The data is presented as the % effect (decrease) in activity after T cell subset depletion.\nFinally, we wanted to confirm that indeed the responses to AMA14e were mediated by CD8^+ T cells. We compared activity to AMA14e in ELISpot depletion assays and ICS CD4^+ or CD8^+ T cell IFN-γ assays with Ap1-12 and recombinant AMA1 protein with v001 and v005 (FIG. 3). CD8^+ T cell depletion reduced ELISpot activity to AMA14e by about 85% in v001 and 95% in v005."}, "[4]": {"test_system": "PBMC", "assay": "ELISpot IFN-γ assay with PBMC of Ad5-PfCA immunized volunteers (Example 1)", "settings": "for IFN-γ ELISpot activity of individual 15-mer peptide: threshold 40 SFC/million", "description": "In order to assess the pools for their ability to induce T-cell responses, specifically CD 8^+ responses, PBMC, 1 month post immunization were used, from the five volunteers in Table 1, in ELISpot assays. In these studies, IFN-γ activity was measured in response to exposure to the peptide pools. The assays were conducted essentially as described by Wang, et al., Proc. Natl. Acad. Sci. (U.S.A.), 98: 10817-22.\nThe stimulation of circulating antigen-specific T cell lymphocytes was evaluated by measurement of γ-IFN induction by ELISPOT. The ELISpot assay was conducted using thawed cryopreserved PBMC at 200 K cells per well. Pre-challenge cells were taken at day 21 and day 22 post AdPfCA vaccination. Cells were suspended in […] complete medium and were stimulated with AMA1 peptides suspended in […] of complete medium. Peptide concentrations used in assays was 10 μg/ml of each peptide tested. Cultures were incubated for 36 h at 37° C., 5% CO2. Depending on availability of cells, each PBMC sample was assayed in duplicate, triplicate, or quadruplicate and the number of IFN-γ-secreting cells recognized as spot-forming cells (SFC) was enumerated using an automated ELISpot reader. In duplicate assays, all values were used in analysis. For triplicate or quadruplicate assays, outliers were rejected if any single value contributed more than 50% of the standard deviation of the triplicate (or quadruplicate) and if its value was three-fold greater or less than the average of the remaining two (or three) values. The mean spot forming cells (SFCs) obtained in negative control wells were subtracted from the value of each test well from the same sample. Negative counts generated by this background subtraction were converted to zero. The mean spot number of the test sample was then calculated and expressed as SFC/million PBMCs. Values obtained with pre-vaccinated samples were subtracted from the post-vaccination values."}}}
{"sequence": "RYKSHGKGYNWGNYN [Ap8-7]", "values": [{"measurement": "CD4^+ depletion % change", "setting": "[1]", "value": 26, "unit": "%"}, {"measurement": "CD8^+ Depletion % change", "setting": "[1]", "value": 99, "unit": "%"}, {"measurement": "CD4^+ depletion, test", "setting": "[1]", "value": 54, "unit": "SFC/10^6"}, {"measurement": "CD8^+ Depletion, test", "setting": "[1]", "value": 1, "unit": "SFC/10^6"}, {"measurement": "CD4^+ depletion, control", "setting": "[1]", "value": 72, "unit": "SFC/10^6"}, {"measurement": "CD8^+ Depletion, control", "setting": "[1]", "value": 72, "unit": "SFC/10^6"}]}
{"sequence": "ETQKCEIFNV (listed as Plasmodium falciparum) [Epitope 10]", "values": [{"measurement": "CD8^+ T cell IFN-γ response in ICS", "setting": "[2]", "value": "very weak CD8^+ IFN-γ responses"}, {"measurement": "multifunctional CD8^+ T cell responses in ICS", "setting": "[2]", "value": "did not appear to induce multifunctional responses"}]}
{"sequence": "INEHREHPKEYEYPL [Ap1-11]", "values": [{"measurement": "% change of ELISpot activity, CD4 dep vs control", "setting": "[3]; V002", "value": "−18", "unit": "%"}, {"measurement": "% change of ELISpot activity, CD8 dep vs control", "setting": "[3]; V002", "value": "−94", "unit": "%"}, {"measurement": "ELISpot IFN-γ activity, CD4 dep", "setting": "[3]; V002", "value": 152}, {"measurement": "ELISpot IFN-γ activity, CD8 dep", "setting": "[3]; V002", "value": 11}, {"measurement": "ELISpot IFN-γ activity, Control dep", "setting": "[3]; V002", "value": 185}, {"measurement": "% change of ELISpot activity, CD4 dep vs control", "setting": "[3]; V005", "value": "−37", "unit": "%"}, {"measurement": "% change of ELISpot activity, CD8 dep vs control", "setting": "[3]; V005", "value": "−100", "unit": "%"}, {"measurement": "ELISpot IFN-γ activity, CD4 dep", "setting": "[3]; V005", "value": 145}, {"measurement": "ELISpot IFN-γ activity, CD8 dep", "setting": "[3]; V005", "value": 0}, {"measurement": "ELISpot IFN-γ activity, Control dep", "setting": "[3]; V005", "value": 233}, {"measurement": "IFN-γ ELISpot activity of individual 15-mer peptide", "setting": "[4]; Volunteer 002", "value": 180, "unit": "SFC/10^6"}, {"measurement": "IFN-γ ELISpot activity of individual 15-mer peptide", "setting": "[4]; Volunteer 005", "value": 322, "unit": "SFC/10^6"}]}
{"sequence": "RYKSHGKGY (listed as Plasmodium falciparum) [Epitope 14]", "values": [{"measurement": "CD8^+ T cell IFN-γ response in ICS", "setting": "[2]", "value": "very weak CD8^+ IFN-γ responses"}, {"measurement": "multifunctional CD8^+ T cell responses in ICS", "setting": "[2]", "value": "did not appear to induce multifunctional responses"}]}
{"sequence": "ETQKCEIFNVKPTCL [Ap8-11]", "values": [{"measurement": "IFN-γ ELISpot activity of individual 15-mer peptide", "setting": "[4]; Volunteer 001", "value": 48, "unit": "SFC/10^6"}, {"measurement": "IFN-γ ELISpot activity of individual 15-mer peptide", "setting": "[4]; Volunteer 005", "value": 218, "unit": "SFC/10^6"}, {"measurement": "IFN-γ ELISpot activity of individual 15-mer peptide", "setting": "[4]; Volunteer 008", "value": 48, "unit": "SFC/10^6"}]}
{"sequence": "TLDEMRHFY [Epitope 8]", "values": [{"measurement": "CD8^+ T cell IFN-γ response in ICS", "setting": "[2]", "value": "equal or more CD8^+ IFN-γ than the parent peptide pool"}]}
{"sequence": "HVNEFPAIDLFECNK [Ap7-4]", "values": [{"measurement": "IFN-γ ELISpot activity of individual 15-mer peptide", "setting": "[4]; Volunteer 001", "value": 96, "unit": "SFC/10^6"}]}
{"sequence": "NEFPAIDLF (listed as Plasmodium falciparum) [Epitope 2]", "values": [{"measurement": "CD8^+ T cell IFN-γ response in ICS", "setting": "[2]", "value": "equal or more CD8^+ IFN-γ than the parent peptide pool"}]}
{"sequence": "LLSAFEFTYMINFGR [Ap1-3]", "values": [{"measurement": "% change of ELISpot activity, CD4 dep vs control", "setting": "[3]; V001", "value": "−32", "unit": "%"}, {"measurement": "% change of ELISpot activity, CD8 dep vs control", "setting": "[3]; V001", "value": "−56", "unit": "%"}, {"measurement": "ELISpot IFN-γ activity, CD4 dep", "setting": "[3]; V001", "value": 58}, {"measurement": "ELISpot IFN-γ activity, CD8 dep", "setting": "[3]; V001", "value": 37}, {"measurement": "ELISpot IFN-γ activity, Control dep", "setting": "[3]; V001", "value": 85}, {"measurement": "IFN-γ ELISpot activity of individual 15-mer peptide", "setting": "[4]; Volunteer 001", "value": 48, "unit": "SFC/10^6"}]}
{"sequence": "NQYLKDGGFAFPPTE [Ap4-5]", "values": [{"measurement": "IFN-γ ELISpot activity of individual 15-mer peptide", "setting": "[4]; Volunteer 005", "value": 50, "unit": "SFC/10^6"}, {"measurement": "ELISpot activity of 1 month PBMC", "setting": "[4]; v005, PBMC 1 month", "value": 50, "unit": "sfc/m"}]}
{"sequence": "FKADRYKSHGKGYNW [Ap8-6]", "values": [{"measurement": "CD4^+ depletion % change", "setting": "[1]", "value": 26, "unit": "%"}, {"measurement": "CD8^+ Depletion % change", "setting": "[1]", "value": 100, "unit": "%"}, {"measurement": "CD4^+ depletion, test", "setting": "[1]", "value": 81, "unit": "SFC/10^6"}, {"measurement": "CD8^+ Depletion, test", "setting": "[1]", "value": 0, "unit": "SFC/10^6"}, {"measurement": "CD4^+ depletion, control", "setting": "[1]", "value": 109, "unit": "SFC/10^6"}, {"measurement": "CD8^+ Depletion, control", "setting": "[1]", "value": 109, "unit": "SFC/10^6"}, {"measurement": "IFN-γ ELISpot activity of individual 15-mer peptide", "setting": "[4]; Volunteer 012", "value": 143, "unit": "SFC/10^6"}]}
